Patent publication US20140228287A1, “1-[(3-CYANO-PYRIDIN-2-YL)METHYL]-3-METHYL-7-(2-BUTYN-1-YL)-8-[3-(R)-AMINO-PIPERIDIN-1-YL]-AXANTHINE FOR THE TREATMENT OF A METABOLIC DISORDER OF A PREDOMINANTLY CARNIVOROUS NON-HUMAN ANIMAL” (BOEHRINGER INGELHEIM VETMEDICA GMBH, priority 2010, published 2014)
Where a name gives a salt, the structure may show the parent alone. Read-outs that look alike come from different tables or passages of the source.

Tests used:
plasma DPP-4 = biological target: T1, plasma DPP-4 (Felis catus, UniProt Q9N2I7); assay: Inhibition of DPP-4 in cat plasma (in vitro); format: biochemical
T1 construct: from tissue; host or cells: cat plasma (3 cats), diluted 70-fold
Protocol: Plasma obtained from 3 different cats and one Wistar rat as control were each incubated with a range of concentrations of 1-[(3-cyano-pyridin-2-yl)methyl]-3-methyl-7-(2-butyn-1-yl)-8-[3-(R)-amino-piperidin-1-yl]-xanthine monohydrochloride. Plasma DPP-4 activity was measured in the following way (which is also described in Eckhard et al. (2007), J. Med. Chem., Vol. 50, 6450-6453, Supporting Information).
Rat and cat plasma was used for ex vivo measurement of DDP-4 activity. Blood was collected in EDTA tubes and subjected to centrifugation. The resultant supernatant was aliquoted and frozen. Plasma DPP-4 activity was assayed after dilution (140-fold for rat plasma; 70-fold for cat plasma) with assay buffer (100 mM Tris-HCl, 100 mM NaCl, pH 7.8; compound stock solutions in dimethylsulfoxide (DMSO), final DMSO concentration in the assay 1%) prior to use.
The assay itself was initiated by mixing 50 μl of diluted plasma with 50 μl of diluted substrate (Ala-Pro-AFC) and performed in black flat-bottom 96-well plates. The plates were then incubated at room temperature for 1 h and fluorescence was measured at excitation/emission wavelengths of 405/535 nm. Data analysis was performed by calculating the fluorescence in the presence of the test compound compared to the fluorescence of the vehicle control after subtracting the background fluorescence.
From a plot of concentration against activity (equivalent to fluorescence units) kinetic data could be collected, e.g. the half-maximal inhibitory concentration (IC50) of the tested compound in the different animals, which data are given in the following Table 2.

DPP IV = biological target: T2, DPP IV (Felis catus, UniProt Q9N2I7); assay: Exploratory single dose PK/PD (0.01/0.1/1.0 mg/kg) in cats: DPP IV activity; format: in vivo; conditions: read-out: DPP IV activity in cat plasma; for response vs control in vivo at 0.01 mg/kg: 0.01 mg/kg single oral; for response vs control in vivo at 0.1 mg/kg: 0.1 mg/kg single oral; for response vs control in vivo at 1 mg/kg: 1 mg/kg single oral
T2 construct: Blood samples for the determination of this compound and DPP IV activity were collected; from tissue; host or cells: plasma of domestic short hair / purpose-bred cats dosed orally
Protocol: The investigation of the PK/PD values was conducted in the same way as in Example 7, with the variations described below.
The aim of this study was to investigate the PK/PD of 1-[(3-cyano-pyridin-2-yl)methyl]-3-methyl-7-(2-butyn-1-yl)-8-[3-(R)-amino-piperidin-1-yl]-xanthine monohydrochloride in the cat after a single oral administration of 0, 0.01, 0.1 and 1.0 mg/kg body weight of this compound (dosages were based on the free base).
Eleven clinically healthy male adult domestic short hair cats with a body weight range of 3.5-5.0 kg were used in this study. All animals were treated orally once via a stomach tube. Blood samples were drawn at 0 h (i.e. prior to treatment), 30 min as well as 1, 2, 4, 8, 12, 24, 36, 48, 72 and 96 h after treatment and the activity of DPP IV was determined like in Example 6.

diabetic ZDF rats = assay: Delayed OGTT in diabetic ZDF rats; format: in vivo, rat; conditions: 1 mg/kg 16 hours before the test
Protocol: A delayed oral glucose tolerance test (OGTT) was applied to diabetic db/db mice and diabetic ZDF rats, as describes in the following.
Male Zucker Diabetic Fatty (ZDF) rats (ZDF/Crl-Leprfa) were obtained from Charles River (USA). Animals were fed ad libitum with a special pelleted diet (Diet No. 2437 [containing 4.5% sucrose], Provimi Kliba, Switzerland) and had free access to water. Animals were housed in groups with a 12 h/12 h light/dark cycle (lights out between 6 p.m. and 6 a.m.). The rats were used for the experiments at 12 weeks of age.
The day before the OGTT, a blood sample from db/db mice or ZDF rats fasted for 2 hours was obtained by cutting the tip of the tail without anaesthesia and the animals were randomized for glucose (n=7 per group). The animals were fed again for 2 hours and then orally administered with either vehicle or 1-[(3-cyano-pyridin-2-yl)methyl]-3-methyl-7-(2-butyn-1-yl)-8-[3-(R)-amino-piperidin-1-yl]-xanthine monohydrochloride at doses between 0.3 and 3 mg/kg bw. A basal blood sample (pre-load) was obtained the next morning after overnight fasting for 16 hours by cutting the tip of the tail without anaesthesia. […] Additional blood samples were taken from the tip of the tail 30 min, 60 min, 90 min, 120 min, and 180 min after the glucose load, and blood glucose was measured. […]

M1 muscarinic receptors = M1 muscarinic receptors (Homo sapiens, UniProt P11229); assay: Selectivity panel, radio ligand binding assay: M1; conditions: only interaction observed in full panel of receptors, ion channels and enzymes
Protocol: In selectivity assays as described in Dörje et al. (1991), J. Pharmacol. Exp. Ther., vol. 256, p. 727-733, chapter Radio ligand binding studies, p. 729, using the full panel of receptors, ion channels and enzymes, the only interaction observed with 1-[(3-cyano-pyridin-2-yl)methyl]-3-methyl-7-(2-butyn-1-yl)-8-[3-(R)-amino-piperidin-1-yl]-xanthine monohydrochloride was with M1 muscarinic receptors, with IC50 in a binding assay of 3 μM.

T1 sequence (Q9N2I7 38-765 limits assumed): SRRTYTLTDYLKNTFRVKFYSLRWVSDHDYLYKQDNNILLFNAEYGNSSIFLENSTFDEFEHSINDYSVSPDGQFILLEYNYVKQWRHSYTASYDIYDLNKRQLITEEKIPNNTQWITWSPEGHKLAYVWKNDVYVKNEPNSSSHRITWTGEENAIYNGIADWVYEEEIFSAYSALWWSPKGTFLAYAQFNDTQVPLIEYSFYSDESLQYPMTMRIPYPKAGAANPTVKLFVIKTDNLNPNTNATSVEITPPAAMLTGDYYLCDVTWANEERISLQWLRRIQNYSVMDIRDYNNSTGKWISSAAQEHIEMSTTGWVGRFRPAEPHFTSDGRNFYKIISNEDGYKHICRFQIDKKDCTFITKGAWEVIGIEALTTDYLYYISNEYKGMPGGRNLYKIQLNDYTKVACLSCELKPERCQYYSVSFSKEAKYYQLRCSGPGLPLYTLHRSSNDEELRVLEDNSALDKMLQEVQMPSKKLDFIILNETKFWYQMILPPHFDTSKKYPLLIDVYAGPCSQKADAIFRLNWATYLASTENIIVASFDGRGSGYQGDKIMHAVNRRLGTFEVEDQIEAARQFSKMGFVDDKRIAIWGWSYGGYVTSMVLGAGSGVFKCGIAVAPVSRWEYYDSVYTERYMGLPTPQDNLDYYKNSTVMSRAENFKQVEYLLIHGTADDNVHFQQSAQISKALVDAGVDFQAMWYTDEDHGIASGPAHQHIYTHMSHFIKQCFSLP
T2 sequence (Q9N2I7 38-765 limits assumed): as above
M1 muscarinic receptors, sequence (P11229 whole entry): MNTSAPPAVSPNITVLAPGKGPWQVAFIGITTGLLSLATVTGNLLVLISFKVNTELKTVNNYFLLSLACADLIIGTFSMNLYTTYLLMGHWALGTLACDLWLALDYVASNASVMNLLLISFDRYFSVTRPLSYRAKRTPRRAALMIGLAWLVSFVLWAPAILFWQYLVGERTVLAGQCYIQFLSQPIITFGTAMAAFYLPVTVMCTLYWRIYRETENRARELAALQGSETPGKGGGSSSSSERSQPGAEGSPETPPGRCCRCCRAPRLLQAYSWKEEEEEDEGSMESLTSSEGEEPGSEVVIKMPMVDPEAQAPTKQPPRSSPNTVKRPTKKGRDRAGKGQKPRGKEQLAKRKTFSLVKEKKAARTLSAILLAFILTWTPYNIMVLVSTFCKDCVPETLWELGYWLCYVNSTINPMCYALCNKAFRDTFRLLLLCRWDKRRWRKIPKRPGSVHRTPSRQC

`CC#CCn1c(N2CCC[C@@H](N)C2)nc2c1c(=O)n(Cc1ncccc1C#N)c(=O)n2C` [1-[(3-cyano-pyridin-2-yl)methyl]-3-methyl-7-(2-butyn-1-yl)-8-[3-(R)-amino-piperidin-1-yl]-xanthine monohydrochloride] was tested. Which IC50 (plasma DPP-4; cat 1 plasma) did it give?
Its IC50 is 1.94 nM.

What about the hillslope (plasma DPP-4; cat 1 plasma) of the same compound?
The hillslope was −0.7518.

What about the IC50 (plasma DPP-4; cat 2 plasma) of the same compound?
Its IC50 is 1.45 nM.

And the hillslope (plasma DPP-4; cat 2 plasma)?
Its hillslope is −0.7102.

And the IC50 (plasma DPP-4; cat 3 plasma)?
The IC50 was 1.84 nM.

And the hillslope (plasma DPP-4; cat 3 plasma)?
Its hillslope is −0.7615.

And the response vs control in vivo at 0.01 mg/kg (DPP IV; 0.5 h)?
The response vs control in vivo at 0.01 mg/kg was 73%.

What about the response vs control in vivo at 0.01 mg/kg (DPP IV; 1 h) of the same compound?
The response vs control in vivo at 0.01 mg/kg was 66%.

What about the response vs control in vivo at 0.01 mg/kg (DPP IV; 2 h) of the same compound?
The response vs control in vivo at 0.01 mg/kg was 71%.

And the response vs control in vivo at 0.01 mg/kg (DPP IV; 4 h)?
The response vs control in vivo at 0.01 mg/kg was 77%.

What about the response vs control in vivo at 0.01 mg/kg (DPP IV; 8 h) of the same compound?
Its response vs control in vivo at 0.01 mg/kg is 85%.

What about the response vs control in vivo at 0.01 mg/kg (DPP IV; 12 h) of the same compound?
Its response vs control in vivo at 0.01 mg/kg is 88%.

And the response vs control in vivo at 0.01 mg/kg (DPP IV; 24 h)?
The response vs control in vivo at 0.01 mg/kg was 90%.

What about the response vs control in vivo at 0.01 mg/kg (DPP IV; 36 h) of the same compound?
The response vs control in vivo at 0.01 mg/kg was 87%.

And the response vs control in vivo at 0.01 mg/kg (DPP IV; 48 h)?
The response vs control in vivo at 0.01 mg/kg was 88%.

What about the response vs control in vivo at 0.01 mg/kg (DPP IV; 72 h) of the same compound?
Its response vs control in vivo at 0.01 mg/kg is 85%.

And the response vs control in vivo at 0.01 mg/kg (DPP IV; 96 h)?
The response vs control in vivo at 0.01 mg/kg was 90%.

And the response vs control in vivo at 0.1 mg/kg (DPP IV; 0.5 h)?
Its response vs control in vivo at 0.1 mg/kg is 23%.

What about the response vs control in vivo at 0.1 mg/kg (DPP IV; 1 h) of the same compound?
The response vs control in vivo at 0.1 mg/kg was 17%.

What about the response vs control in vivo at 0.1 mg/kg (DPP IV; 2 h) of the same compound?
Its response vs control in vivo at 0.1 mg/kg is 16%.

And the response vs control in vivo at 0.1 mg/kg (DPP IV; 4 h)?
The response vs control in vivo at 0.1 mg/kg was 24%.

What about the response vs control in vivo at 0.1 mg/kg (DPP IV; 8 h) of the same compound?
Its response vs control in vivo at 0.1 mg/kg is 39%.

What about the response vs control in vivo at 0.1 mg/kg (DPP IV; 12 h) of the same compound?
The response vs control in vivo at 0.1 mg/kg was 50%.

And the response vs control in vivo at 0.1 mg/kg (DPP IV; 24 h)?
Its response vs control in vivo at 0.1 mg/kg is 67%.

What about the response vs control in vivo at 0.1 mg/kg (DPP IV; 36 h) of the same compound?
Its response vs control in vivo at 0.1 mg/kg is 83%.

And the response vs control in vivo at 0.1 mg/kg (DPP IV; 48 h)?
Its response vs control in vivo at 0.1 mg/kg is 82%.

What about the response vs control in vivo at 0.1 mg/kg (DPP IV; 72 h) of the same compound?
Its response vs control in vivo at 0.1 mg/kg is 91%.

What about the response vs control in vivo at 0.1 mg/kg (DPP IV; 96 h) of the same compound?
The response vs control in vivo at 0.1 mg/kg was 90%.

What about the response vs control in vivo at 1 mg/kg (DPP IV; 0.5 h) of the same compound?
Its response vs control in vivo at 1 mg/kg is 10%.

And the response vs control in vivo at 1 mg/kg (DPP IV; 1 h)?
Its response vs control in vivo at 1 mg/kg is 10%.

What about the response vs control in vivo at 1 mg/kg (DPP IV; 2 h) of the same compound?
The response vs control in vivo at 1 mg/kg was 8%.

And the response vs control in vivo at 1 mg/kg (DPP IV; 4 h)?
The response vs control in vivo at 1 mg/kg was 10%.

What about the response vs control in vivo at 1 mg/kg (DPP IV; 8 h) of the same compound?
The response vs control in vivo at 1 mg/kg was 12%.

And the response vs control in vivo at 1 mg/kg (DPP IV; 12 h)?
Its response vs control in vivo at 1 mg/kg is 15%.

And the response vs control in vivo at 1 mg/kg (DPP IV; 24 h)?
Its response vs control in vivo at 1 mg/kg is 27%.

And the response vs control in vivo at 1 mg/kg (DPP IV; 36 h)?
The response vs control in vivo at 1 mg/kg was 63%.

And the response vs control in vivo at 1 mg/kg (DPP IV; 48 h)?
The response vs control in vivo at 1 mg/kg was 72%.

And the response vs control in vivo at 1 mg/kg (DPP IV; 72 h)?
Its response vs control in vivo at 1 mg/kg is 80%.

And the response vs control in vivo at 1 mg/kg (DPP IV; 96 h)?
Its response vs control in vivo at 1 mg/kg is 86%.

And the “suppression of glucose excursion in OGTT” value (diabetic ZDF rats)?
Its value is 35%.

What about the IC50 (M1 muscarinic receptors) of the same compound?
The IC50 was 3000 nM.
